pEC50: −log10 of the molar value. Several values for one entry are separate records, joined by “and”; a condition that tells them apart may be missing. Equal values may be shown once. Read-outs that look alike come from different tables or passages of the source.
Key:
[1] = test system: BTN2A−/− MIA PaCa-2 (BTN2A1/BTN2A2 KO) cells; experiment: Cell killing assay with BTN2A−/− MIA PaCa-2 (BTN2A1/BTN2A2 KO) cells expressing BTN2A1/BTN2A2 variants; details: for Cytotoxicity of Vγ9Vδ2 T cells (percentage of specific lysis): replicates; for pEC50 / EC50: Homo sapiens
Protocol: MIA PaCa-2 cells were infected with lentivirus bearing luciferase transgene. Luciferase-positive cells were plated at 5.0 × 10^3 cells per well in 384-well plates 1 day before transfection. All plasmids were transfected into BTN2A^−/− MIA PaCa-2 (BTN2A1/BTN2A2 KO) cells using Lipofectamine 2000 reagent. […] Stable-lite luciferase (Vazyme) was added to each well and the luciferase signal was immediately measured by using the PerkinElmer EnVision microplate reader.
Percentage of lysis was calculated using the following equation: percentage of specific lysis = (maximum luciferase − experimental luciferase)/maximum luciferase × 100.

VpBTN1 BFI–VpBTN3 BFI = experiment: ITC: VpBTN1 BFI binding to VpBTN3 BFI in the presence of pAg; parameters: species or system alpaca (Vicugna pacos)
Protocol: ITC experiments were performed using the MicroCal PEAQ-ITC instrument (GE Healthcare) at 25 °C. We used an initial injection of 0.4 μl followed by 19 injections (2 µl each) at 150 s time intervals. ITC binding fits were calculated using MicroCal Analysis software. The samples were prepared using a buffer (20 mM HEPES pH 7.5, 150 mM NaCl).
ITC experiments of HMBPP, DMAPP or IPP binding to the VpBTN3 BFI (or the preconditioned VpBTN3 BFI and VpBTN2 BFI complex) and VpBTN2 BFI (or VpBTN1 BFI) binding to VpBTN3 BFI in the presence of HMBPP, DMAPP or IPP were performed according to the same procedures as for the BTN3A1 B30.2 and BTN2A1 B30.2.

[2] = Ext. Fig. 6d, cells expressing 2A2 G352Y354QR, three-parameter fit
[3] = Ext. Fig. 6d, cells expressing 2A2 M506T, three-parameter fit
[4] = Ext. Fig. 6d, cells expressing 2A2 W374R/M506T, three-parameter fit
[5] = Ext. Fig. 6d, cells expressing 2A2 W374R, three-parameter fit
[6] = Ext. Fig. 6d, cells expressing 2A2 WT, three-parameter fit

With C/C(=C\COP(=O)(O)OP(=O)(O)O)CO [Compound 1, (E)-4-hydroxy-3-methylbut-2-en-1-yl diphosphate] the “Span (best-fit value)” value [1, 2] was 7.278, the “Top (best-fit value)” value [1, 2] was 27.1 and the “Bottom (best-fit value)” value [1, 3] was 17.84. The “Span (best-fit value)” value [1, 3] was 32.36, the “Top (best-fit value)” value [1, 3] was 50.2 and the “Bottom (best-fit value)” value [1, 4] was 21.03. The “Span (best-fit value)” value [1, 4] was 27.17, the “Top (best-fit value)” value [1, 4] was 48.19 and the “Bottom (best-fit value)” value [1, 5] was 17.13. For the same molecule, the “Span (best-fit value)” value [1, 5] was 18.41, the “Top (best-fit value)” value [1, 5] was 35.54 and the “Bottom (best-fit value)” value [1, 6] was 21.2. For the same molecule, the “Span (best-fit value)” value [1, 6] was 14.17, the “Top (best-fit value)” value [1, 6] was 35.37 and the “Cytotoxicity of Vγ9Vδ2 T cells (percentage of specific lysis)” value ([1]; HMBPP log concentration -4, 2A1 WT cells) was 70.1646% and 71.1001% and 71.513%. For the same molecule, the “Cytotoxicity of Vγ9Vδ2 T cells (percentage of specific lysis)” value ([1]; HMBPP log concentration -4, 2A1 ∆C cells) was 41.112% and 41.0173% and 41.0139%, the “Cytotoxicity of Vγ9Vδ2 T cells (percentage of specific lysis)” value ([1]; HMBPP log concentration -5, 2A1 WT cells) was 64.2316% and 64.2674% and 65.8786% and the “Cytotoxicity of Vγ9Vδ2 T cells (percentage of specific lysis)” value ([1]; HMBPP log concentration -5, 2A1 ∆C cells) was 23.0147% and 25.2364% and 24.5941%. For the same molecule, the “Cytotoxicity of Vγ9Vδ2 T cells (percentage of specific lysis)” value ([1]; HMBPP log concentration -6, 2A1 WT cells) was 56.2518% and 58.0065% and 60.1294%, the “Cytotoxicity of Vγ9Vδ2 T cells (percentage of specific lysis)” value ([1]; HMBPP log concentration -6, 2A1 ∆C cells) was 18.5277% and 22.0034% and 20.9688% and the “Cytotoxicity of Vγ9Vδ2 T cells (percentage of specific lysis)” value ([1]; HMBPP log concentration -7, 2A1 WT cells) was 48.0249% and 51.1234% and 56.1132%. For the same molecule, the “Cytotoxicity of Vγ9Vδ2 T cells (percentage of specific lysis)” value ([1]; HMBPP log concentration -7, 2A1 ∆C cells) was 26.9403% and 18.9725% and 19.5843%, the “Cytotoxicity of Vγ9Vδ2 T cells (percentage of specific lysis)” value ([1]; HMBPP log concentration -8, 2A1 WT cells) was 44.2956% and 44.0311% and 51.5761% and the “Cytotoxicity of Vγ9Vδ2 T cells (percentage of specific lysis)” value ([1]; HMBPP log concentration -8, 2A1 ∆C cells) was 23.996% and 19.5568% and 15.4363%. For the same molecule, the “Cytotoxicity of Vγ9Vδ2 T cells (percentage of specific lysis)” value ([1]; HMBPP log concentration -9, 2A1 WT cells) was 35.2231% and 37.6052% and 42.4431%, the “Cytotoxicity of Vγ9Vδ2 T cells (percentage of specific lysis)” value ([1]; HMBPP log concentration -9, 2A1 ∆C cells) was 20.428% and 19.6068% and 15.0611% and the “Cytotoxicity of Vγ9Vδ2 T cells (percentage of specific lysis)” value ([1]; HMBPP log concentration -10, 2A1 WT cells) was 29.643% and 30.0604% and 32.9175%. For the same molecule, the “Cytotoxicity of Vγ9Vδ2 T cells (percentage of specific lysis)” value ([1]; HMBPP log concentration -10, 2A1 ∆C cells) was 15.4573% and 16.0868% and 15.1497%, the “Cytotoxicity of Vγ9Vδ2 T cells (percentage of specific lysis)” value ([1]; HMBPP log concentration -11, 2A1 WT cells) was 26.3218% and 25.6969% and 24.6851% and the “Cytotoxicity of Vγ9Vδ2 T cells (percentage of specific lysis)” value ([1]; HMBPP log concentration -11, 2A1 ∆C cells) was 16.8095% and 15.8259% and 16.2096%. For the same molecule, the pEC50 ([1]; MIA PaCa-2, 144 h, Ext. Fig. 6d, cells expressing 2A1 WT, three-parameter fit) was 7.04, the pEC50 ([1]; MIA PaCa-2, 144 h, Ext. Fig. 6d, cells expressing 2A2 G352Y354QR/M506T/W374R, three-parameter fit) was 6.75 and the pEC50 ([1]; MIA PaCa-2, 144 h, Ext. Fig. 6d, cells expressing 2A2 M506T, three-parameter fit) was 6.57. For the same molecule, the pEC50 ([1]; MIA PaCa-2, 144 h, Ext. Fig. 6d, cells expressing 2A2 W374R/M506T, three-parameter fit) was 6.72, the EC50 ([1]; MIA PaCa-2, 144 h, read-out: LogEC50, Ext. Fig. 6d (converted), cells expressing 2A1 WT, log(Concentration)/M, three-parameter fit) was 90.2 nM and the EC50 ([1]; MIA PaCa-2, 144 h, read-out: LogEC50, Ext. Fig. 6d (converted), cells expressing 2A2 G352Y354QR/M506T/W374R, log(Concentration)/M, three-parameter fit) was 176 nM. It also gave an EC50 ([1]; MIA PaCa-2, 144 h, read-out: LogEC50, Ext. Fig. 6d (converted), cells expressing 2A2 M506T, log(Concentration)/M, three-parameter fit) of 267 nM, an EC50 ([1]; MIA PaCa-2, 144 h, read-out: LogEC50, Ext. Fig. 6d (converted), cells expressing 2A2 W374R/M506T, log(Concentration)/M, three-parameter fit) of 191 nM and an EC50 ([1]; MIA PaCa-2, read-out: EC50 (nM), MIA PaCa-2 cell lysis by Vγ9Vδ2 T cells exposed to HMBPP, 2A1 WT) of 90.3 nM. It also gave an EC50 ([1]; MIA PaCa-2, read-out: EC50 (nM), MIA PaCa-2 cell lysis by Vγ9Vδ2 T cells exposed to HMBPP, active chimera bearing G352Y354QR/ M506T/W374R) of 176 nM, an EC50 ([1]; MIA PaCa-2, read-out: EC50 (nM), MIA PaCa-2 cell lysis by Vγ9Vδ2 T cells exposed to HMBPP, active chimera bearing W374R/M506T) of 191 nM and an EC50 ([1]; MIA PaCa-2, read-out: EC50 (μM) of Vγ9Vδ2 T cells towards BTN2A−/− MIA PaCa-2 in the presence of HMBPP, NT cells) of 12800 nM. For the same molecule, the EC50 ([1]; MIA PaCa-2, read-out: EC50 (μM) of Vγ9Vδ2 T cells towards BTN2A−/− MIA PaCa-2 in the presence of HMBPP, transfected 2A1 WT) was 800 nM, the EC50 ([1]; MIA PaCa-2, read-out: EC50 (μM) of Vγ9Vδ2 T cells towards BTN2A−/− MIA PaCa-2 in the presence of HMBPP, transfected 2A1 variant D455G/E457R) was 61100 nM and the EC50 ([1]; MIA PaCa-2, read-out: EC50 (μM) of Vγ9Vδ2 T cells towards BTN2A−/− MIA PaCa-2 in the presence of HMBPP, transfected 2A1 variant R477A) was 19700 nM. For the same molecule, the EC50 ([1]; MIA PaCa-2, read-out: EC50 (μM) of Vγ9Vδ2 T cells towards BTN2A−/− MIA PaCa-2 in the presence of HMBPP, transfected 2A1 variant T510A) was 1.17e+06 nM, the EC50 ([1]; MIA PaCa-2, read-out: EC50 (μM) of Vγ9Vδ2 T cells towards BTN2A−/− MIA PaCa-2 in the presence of HMBPP, transfected 2A1 variant T510M) was 97700 nM and the EC50 ([1]; MIA PaCa-2, read-out: EC50 (μM) of Vγ9Vδ2 T cells towards BTN2A−/− MIA PaCa-2 in the presence of HMBPP, transfected 2A1 variant V511A) was 130000 nM. The EC50 ([1]; MIA PaCa-2, read-out: EC50 (μM) of Vγ9Vδ2 T cells towards BTN2A−/− MIA PaCa-2 in the presence of HMBPP, transfected 2A1 variant V511D) was 12500 nM, the EC50 ([1]; MIA PaCa-2, read-out: EC50 (μM) of Vγ9Vδ2 T cells towards BTN2A−/− MIA PaCa-2 in the presence of HMBPP, transfected 2A1 variant V511W) was 389000 nM and the EC50 ([1]; MIA PaCa-2, read-out: EC50 (μM) of Vγ9Vδ2 T cells towards BTN2A−/− MIA PaCa-2 in the presence of HMBPP, transfected 2A1 variant ΔC) was 17500 nM. It also gave a pEC50 ([1]; MIA PaCa-2, read-out: EC50, MIA PaCa-2 lysis, BTN2A−/− MIA PaCa-2 stably expressing BTN2A1 WT) of 7.89, a pEC50 ([1]; MIA PaCa-2, read-out: EC50, best-fit value, 2A1 WT, unit not printed in the sheet (b166 prints […])) of 7.89 and a pEC50 ([1]; MIA PaCa-2, read-out: EC50, best-fit value, 2A1 ∆C, unit not printed in the sheet (b166 prints […])) of 4.36. The “VpBTN1 binding to VpBTN3 in the presence of pAg” value (VpBTN1 BFI–VpBTN3 BFI) was “does not bind”.

From publication PMC10533412, “Phosphoantigens glue butyrophilin 3A1 and 2A1 to activate Vγ9Vδ2 T cells” (Nature, 2023)
